Test results from patent US20250129094A1, “NEW QUINOLINE DERIVATIVES” (ELANCO ANIMAL HEALTH GMBH, priority 2021, published 2025).
pEC50: −log10 of the molar value. Read-outs that look alike come from different tables or passages of the source.

How the values were obtained:
[1] = test system: H. contortus and/or T. colubriformis; assay: In vivo assay 3: gastro intestinal nematodes H. contortus and T. colubriformis in jirds; conditions: jirds (Meriones unguiculatus), at ≤1.0 mg/kg intraperitoneal, treated once on Day 6 after infection
Experimental: In Vivo Assay 3: Gastro Intestinal Nematodes of H. contortus (Haemonchus contortus) and T. colubriformis (Trichostrongylus colubriformis)
Jirds (Meriones unguiculatus), immunosuppressed by administration of rodent feed containing hydrocortisone 21-acetate, were experimentally infected with third instar larvae each of T. colubriformis and H. contortus by oral gavage and were treated once orally or intraperitoneally with the formulated test compound on Day 6 after infection. Three days after treatment, jirds were euthanized and dissected to recover H. contortus from stomach and T. colubriformis from the small intestine. Efficacy is expressed as a % reduction in worm numbers in comparison with a placebo treated group, using the Abbot's formula.

D. immitis Slo-1 = D. immitis Slo-1 (Dirofilaria immitis, UniProt I0DFK5); assay: D. immitis Slo-1 - action at a recombinant D. immitis cell line (membrane potential, FLIPR); type: cell-based
D. immitis Slo-1, sequence (I0DFK5 1-1119): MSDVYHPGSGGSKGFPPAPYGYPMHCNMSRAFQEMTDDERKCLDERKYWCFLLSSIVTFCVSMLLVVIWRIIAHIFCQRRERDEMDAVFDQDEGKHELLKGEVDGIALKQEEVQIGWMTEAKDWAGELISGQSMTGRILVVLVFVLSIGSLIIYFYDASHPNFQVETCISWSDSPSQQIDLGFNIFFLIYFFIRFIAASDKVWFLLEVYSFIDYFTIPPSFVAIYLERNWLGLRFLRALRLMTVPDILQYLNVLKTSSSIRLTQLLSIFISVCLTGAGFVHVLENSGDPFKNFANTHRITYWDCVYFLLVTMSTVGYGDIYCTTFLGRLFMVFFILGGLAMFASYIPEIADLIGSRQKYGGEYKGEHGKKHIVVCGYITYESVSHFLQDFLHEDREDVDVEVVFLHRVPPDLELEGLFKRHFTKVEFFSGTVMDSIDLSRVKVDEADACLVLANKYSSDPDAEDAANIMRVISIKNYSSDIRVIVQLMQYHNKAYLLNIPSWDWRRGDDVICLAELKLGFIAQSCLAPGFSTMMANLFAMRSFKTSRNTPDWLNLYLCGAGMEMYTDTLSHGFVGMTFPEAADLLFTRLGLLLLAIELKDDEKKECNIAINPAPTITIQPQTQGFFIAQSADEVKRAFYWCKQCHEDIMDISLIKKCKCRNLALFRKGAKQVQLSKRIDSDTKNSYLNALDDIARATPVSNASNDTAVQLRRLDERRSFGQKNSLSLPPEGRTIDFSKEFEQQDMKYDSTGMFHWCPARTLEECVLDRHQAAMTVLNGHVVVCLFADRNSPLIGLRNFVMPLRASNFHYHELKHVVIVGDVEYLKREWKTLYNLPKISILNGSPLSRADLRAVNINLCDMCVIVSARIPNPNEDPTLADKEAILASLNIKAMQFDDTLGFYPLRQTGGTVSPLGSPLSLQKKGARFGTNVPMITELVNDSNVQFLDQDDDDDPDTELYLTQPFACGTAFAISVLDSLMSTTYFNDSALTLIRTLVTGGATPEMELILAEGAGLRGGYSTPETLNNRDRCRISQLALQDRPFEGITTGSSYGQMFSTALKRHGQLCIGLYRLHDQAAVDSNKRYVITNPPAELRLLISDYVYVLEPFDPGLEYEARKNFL

A. viteae = conditions: jirds (Meriones unguiculatus), at ≤25.0 mg/kg per oral, treated once, necropsy 12 weeks after infection
Text: Jirds (Meriones unguiculatus), experimentally infected with infective A. viteae larvae via subcutaneous injection were subsequently treated once with the formulated test compound by oral gavage or intraperitoneally. At necropsy 12 weeks after infection, efficacy was expressed as a % reduction in worm numbers in comparison with the placebo treated group, using the Abbot's formula.

SMILES | activity (% reduction in worm numbers) [1] [%] | pEC50 (D. immitis Slo-1) | EC50 (D. immitis Slo-1; read-out: pE50, stable CHO cell line expressing D. immitis Slo-1, voltage sensitive dye, upper limit in μM) [µM] | activity (% reduction in worm numbers) (A. viteae) [%]
N=S1(=O)CC(c2c(C(=O)N[C@H]3CCOc4ccccc43)cnc3c(-c4cc(F)cc(F)c4F)c(F)ccc23)C1 (stereo partly drawn) [Example 10, N-[(4S)-3,4-dihydro-2H-chromen-4-yl]-7-fluoro-4-(1-imino-1-oxido-1lambda^4-thietan-3-yl)-8-(2,3,5-trifluorophenyl) quinoline-3-carboxamide] | 100 | 8.00 to 9.00 |  | 
O=C(N[C@H]1CCOc2ccccc21)c1cnc2c(-c3cc(F)cc(F)c3F)c(F)ccc2c1[C@H]1CCOC1 [Example 9, N-[(4S)-3,4-dihydro-2H-1-benzopyran-4-yl]-7-fluoro-4-(oxolan-(3R)-yl)-8-(2,3,5-trifluorophenyl) quinoline-3-carboxamide] | 100 | 8.00 to 9.00 |  | 
O=C(N[C@H]1CCOc2ccccc21)c1cnc2c(-c3cc(F)cc(F)c3F)c(F)ccc2c1C1C[S+]([O-])C1 (single isomer, unassigned) [Example 6] |  |  | 0.1 to 1 | 
O=C(N[C@H]1CCOc2ccccc21)c1cnc2c(-c3cc(F)cc(F)c3F)c(F)ccc2c1C1C[S+]([O-])C1 (single isomer, unassigned) [Example 5] | 100 |  |  | 
O=C(N[C@H]1CCOc2ccccc21)c1cnc2c(-c3cc(Cl)cc(Cl)c3)c(F)ccc2c1N1CCOC2CC21 (stereo partly drawn) [Example 13, 4-(2-oxa-5-azabicyclo[4.1.0]heptan-5-yl)-N—((S)-chroman-4-yl)-8-(3,5-dichlorophenyl)-7-fluoroquinoline-3-carboxamide] |  | 8.00 to 9.00 |  | 
O=C(N[C@H]1CCOc2ccccc21)c1cnc2c(-c3cc(F)cc(F)c3F)c(F)ccc2c1C1CCOC1 (stereo partly drawn) [Example 7, N-[(4S)-3,4-dihydro-2H-1-benzopyran-4-yl]-7-fluoro-4-(oxolanyl)-8-(2,3,5-trifluorophenyl) quinoline-3-carboxamide] |  | 8.00 to 9.00 |  | 
O=C(N[C@H]1CCOc2ccccc21)c1cnc2c(-c3cc(F)cc(F)c3F)c(F)ccc2c1[C@@H]1CCOC1 [Example 8, N-[(4S)-3,4-dihydro-2H-1-benzopyran-4-yl]-7-fluoro-4-(oxolan-(3S)-yl)-8-(2,3,5-trifluorophenyl) quinoline-3-carboxamide] | 100 | 8.00 to 9.00 |  | 
O=C1CN(c2c(C(=O)N[C@H]3CCOc4ccccc43)cnc3c(-c4cc(F)cc(F)c4F)c(F)ccc23)CCN1 [Example 16, N—((S)-chroman-4-yl)-7-fluoro-4-(3-oxopiperazin-1-yl)-8-(2,3,5-trifluorophenyl) quinoline-3-carboxamide] | 100 |  |  | 
O=C(N[C@H]1CCOc2ccccc21)c1cnc2c(-c3cc(F)cc(F)c3F)c(F)ccc2c1[C@H]1C[C@H](F)C1 [Example 15, N—((S)-chroman-4-yl)-7-fluoro-4-((1R,3S)-3-fluorocyclobutyl)-8-(2,3,5-trifluorophenyl) quinoline-3-carboxamide] | 100 | 8.00 to 9.00 |  | 
O=C(N[C@H]1CCOc2ccccc21)c1cnc2c(-c3cc(F)cc(F)c3F)c(F)ccc2c1C1CS(=O)(=O)C1 [Example 3, N-[(4S)-3,4-dihydro-2H-chromen-4-yl]-4-(1,1-dioxidothietan-3-yl)-7-fluoro-8-(2,3,5-trifluorophenyl) quinoline-3-carboxamide] |  | 7.00 to 8.00 |  | 
O=C1CC(c2c(C(=O)N[C@H]3CCOc4ccccc43)cnc3c(-c4cc(F)cc(F)c4F)c(F)ccc23)C1 [Example 1, N-[(4S)-3,4-dihydro-2H-chromen-4-yl]-7-fluoro-4-(3-oxocyclobutyl)-8-(2,3,5-trifluorophenyl) quinoline-3-carboxamide] | 100 | 8.00 to 9.00 |  | 100
